# Results reported in ChEMBL document CHEMBL1134311, “Nonsteroidal selective glucocorticoid modulators: the effect of C-5 alkyl substitution on the transcriptional activation/repression profile of 2,5-dihydro-10-methoxy-2,2,4-trimethyl-1H-[1]benzopyrano[3,4-f]quinolines” (J Med Chem, 2001).
# How the values were obtained:
# Glucocorticoid receptor [1] = molecular target: T1, Glucocorticoid receptor (Homo sapiens, UniProt P04150); experiment: Effective concentration in HepG2 cells transfected with LUC gene (E-sel-Luc).; format: functional, cell-based
# T1 sequence (P04150 whole entry): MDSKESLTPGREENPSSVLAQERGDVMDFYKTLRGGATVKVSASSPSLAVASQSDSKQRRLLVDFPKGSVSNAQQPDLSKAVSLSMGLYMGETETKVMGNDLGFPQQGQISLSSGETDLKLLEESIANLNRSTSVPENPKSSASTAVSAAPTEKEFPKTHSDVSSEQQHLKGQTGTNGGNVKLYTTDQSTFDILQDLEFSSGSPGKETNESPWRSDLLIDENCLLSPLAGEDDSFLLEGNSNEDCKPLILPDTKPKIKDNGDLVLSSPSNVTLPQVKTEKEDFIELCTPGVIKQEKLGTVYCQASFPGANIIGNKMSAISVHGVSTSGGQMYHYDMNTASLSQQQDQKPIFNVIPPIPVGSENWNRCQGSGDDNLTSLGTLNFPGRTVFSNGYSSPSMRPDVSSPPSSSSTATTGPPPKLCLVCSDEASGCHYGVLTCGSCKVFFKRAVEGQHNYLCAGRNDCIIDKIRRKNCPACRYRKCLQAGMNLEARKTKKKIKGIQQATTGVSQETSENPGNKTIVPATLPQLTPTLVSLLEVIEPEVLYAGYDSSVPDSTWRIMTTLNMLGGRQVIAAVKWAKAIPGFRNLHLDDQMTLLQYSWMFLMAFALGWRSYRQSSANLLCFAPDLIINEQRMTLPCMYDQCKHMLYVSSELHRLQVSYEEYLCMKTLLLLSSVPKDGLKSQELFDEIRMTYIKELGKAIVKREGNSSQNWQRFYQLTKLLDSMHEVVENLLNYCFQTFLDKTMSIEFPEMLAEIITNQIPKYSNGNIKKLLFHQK
# Glucocorticoid receptor [2] = molecular target: T1, Glucocorticoid receptor; experiment: The effective concentration in CV-1 cells for glucocorticoid response element activation (GRE).; format: functional, cell-based
# Progesterone receptor = molecular target: T2, Progesterone receptor (Homo sapiens, UniProt P06401); experiment: Binding affinity towards progesterone receptor (PR) by displacing [3H]progesterone.
# T2 sequence (P06401 whole entry): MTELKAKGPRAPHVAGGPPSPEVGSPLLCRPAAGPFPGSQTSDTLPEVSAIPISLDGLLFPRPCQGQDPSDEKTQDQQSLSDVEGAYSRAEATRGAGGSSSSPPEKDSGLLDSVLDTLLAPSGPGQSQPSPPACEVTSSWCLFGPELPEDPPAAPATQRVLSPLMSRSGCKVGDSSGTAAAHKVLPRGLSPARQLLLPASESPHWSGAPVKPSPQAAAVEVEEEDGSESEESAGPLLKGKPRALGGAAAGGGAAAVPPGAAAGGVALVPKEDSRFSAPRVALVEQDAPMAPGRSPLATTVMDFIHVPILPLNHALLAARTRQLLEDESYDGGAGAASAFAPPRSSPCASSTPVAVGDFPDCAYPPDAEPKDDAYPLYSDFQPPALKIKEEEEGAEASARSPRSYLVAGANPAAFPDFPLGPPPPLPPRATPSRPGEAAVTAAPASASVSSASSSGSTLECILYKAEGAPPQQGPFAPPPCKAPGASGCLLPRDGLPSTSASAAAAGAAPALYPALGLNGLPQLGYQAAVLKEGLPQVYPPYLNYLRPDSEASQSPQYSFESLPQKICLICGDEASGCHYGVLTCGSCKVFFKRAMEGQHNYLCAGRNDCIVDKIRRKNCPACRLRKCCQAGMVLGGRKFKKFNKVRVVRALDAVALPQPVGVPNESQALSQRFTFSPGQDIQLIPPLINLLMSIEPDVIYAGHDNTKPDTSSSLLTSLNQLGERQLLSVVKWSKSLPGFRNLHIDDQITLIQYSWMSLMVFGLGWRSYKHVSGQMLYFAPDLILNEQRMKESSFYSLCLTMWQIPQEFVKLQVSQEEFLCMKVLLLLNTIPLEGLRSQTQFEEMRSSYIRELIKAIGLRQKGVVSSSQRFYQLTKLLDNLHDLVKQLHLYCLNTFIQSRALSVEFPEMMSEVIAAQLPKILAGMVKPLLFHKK
# Glucocorticoid receptor [3] = molecular target: T1, Glucocorticoid receptor; experiment: Binding affinity towards glucocorticoid receptor (GR) by displacing [3H]dexamethasone
SMILES,EC50 (Glucocorticoid receptor [1]) [nM],EC50 (Glucocorticoid receptor [2]) [nM],Ki (Progesterone receptor) [nM],Ki (Glucocorticoid receptor [3]) [nM]
COc1cccc2c1-c1ccc3c(c1C(CCN(C)C)O2)C(C)=CC(C)(C)N3 (centres undefined),,,> 5000,
COc1cccc2c1-c1ccc3c(c1C(CC(=O)O)O2)C(C)=CC(C)(C)N3 (centres undefined),> 5000,> 5000,> 5000,> 5000
COc1cccc2c1-c1ccc3c(c1C(CC(C)C)O2)C(C)=CC(C)(C)N3 (centres undefined),69,223,> 5000,9.5
COc1cccc2c1-c1ccc3c(c1C(C1CCCC1)O2)C(C)=CC(C)(C)N3 (centres undefined),,,> 5000,
COc1cccc2c1-c1ccc3c(c1C(C(N)=O)O2)C(C)=CC(C)(C)N3 (centres undefined),> 5000,> 5000,> 5000,> 5000
COc1cccc2c1-c1ccc3c(c1C(Cc1ccccc1)O2)C(C)=CC(C)(C)N3 (centres undefined),,,> 5000,
C=CCCC1Oc2cccc(OC)c2-c2ccc3c(c21)C(C)=CC(C)(C)N3 (centres undefined),22,78,> 5000,8.1
C=CCC1Oc2cccc(OC)c2-c2ccc3c(c21)C(C)=CC(C)(C)N3 (stereo in doubt; 37) [AL-43],450,520,> 5000,150
COc1cccc2c1-c1ccc3c(c1C(C(C)C)O2)C(C)=CC(C)(C)N3 (centres undefined),39,146,> 5000,
COc1cccc2c1-c1ccc3c(c1C(C1CCCCC1)O2)C(C)=CC(C)(C)N3 (centres undefined),,,> 5000,
CCCC1Oc2cccc(OC)c2-c2ccc3c(c21)C(C)=CC(C)(C)N3 (centres undefined),70,75,> 5000,5
C/C=C\C1Oc2cccc(OC)c2-c2ccc3c(c21)C(C)=CC(C)(C)N3 (centres undefined),168,460,,

# Continued, values first:
EC50 (Glucocorticoid receptor [1]) [nM],EC50 (Glucocorticoid receptor [2]) [nM],Ki (Progesterone receptor) [nM],Ki (Glucocorticoid receptor [3]) [nM],SMILES
4,9,> 5000,,COc1cccc2c1-c1ccc3c(c1C(c1cccc(OCSC)c1)O2)C(C)=CC(C)(C)N3 (centres undefined)
> 5000,> 5000,> 5000,3200,CNC(=O)CC1Oc2cccc(OC)c2-c2ccc3c(c21)C(C)=CC(C)(C)N3 (centres undefined)
27,34,760,,C#CCC1Oc2cccc(OC)c2-c2ccc3c(c21)C(C)=CC(C)(C)N3 (centres undefined)
,,> 5000,,COc1cccc2c1-c1ccc3c(c1C(CCO)O2)C(C)=CC(C)(C)N3 (centres undefined)
> 5000,> 5000,> 5000,,COc1cccc2c1-c1ccc3c(c1CO2)C(C)=CC(C)(C)N3
144,400,2100,9,C/C=C/C1Oc2cccc(OC)c2-c2ccc3c(c21)C(C)=CC(C)(C)N3 (centres undefined)
13,33,1800,2.5,C=CCC1Oc2cccc(OC)c2-c2ccc3c(c21)C(C)=CC(C)(C)N3 (racemic) [AL-43]
90,264,> 5000,,CCC1Oc2cccc(OC)c2-c2ccc3c(c21)C(C)=CC(C)(C)N3 (centres undefined)
> 5000,> 5000,> 5000,,COc1cccc2c1-c1ccc3c(c1C(CC(=O)N(C)C)O2)C(C)=CC(C)(C)N3 (centres undefined)
6.9,14,1300,,"C=CCC1Oc2cccc(OC)c2-c2ccc3c(c21)C(C)=CC(C)(C)N3 (single isomer, unassigned; (-)) [AL-43]"
